Experimental findings from patent US20260137820A1, “TRIFUNCTIONAL COMPOUND AND USE THEREOF” (PEKING UNIVERSITY, priority 2022, published 2026) are described below.

In one experiment the test system is FAP, DPP-4 and PREP. The experiment is described as follows: Binding selectivity to homologous proteins (competitive inhibition of enzyme substrate, IC50). Type of experiment: biochemical. The conditions noted are these: from IC50 values, pNA release. The method, then:
Taking FAP target as an example, homologous proteins thereof include, but are not limited to, DPP-4 and PREP. The structural similarity thereof may lead to a decreased binding selectivity of the modified precursor molecules for the homologous proteins, resulting in an increased uptake in non-target organs.
The binding selectivity for homologous proteins was determined by a competitive inhibition experiment on the substrate of the enzymes, and the binding/inhibition selectivity thereof is indirectly evaluated by the median inhibitory concentration (IC50) values obtained.
By reference to the method described in Extended Structure-Activity Relationship and Pharmacokinetic Investigation of (4-Quinolinoyl)glycyl-2-cyanopyrrolidine Inhibitors of Fibroblast Activation Protein (FAP). Journal of Medicinal Chemistry 57, 3053-3074 (2014), published by Jansen et al., the initial rate of p-nitroaniline (pNA) released from the substrate (absorption at 405 nm) was measured by using a microplate reader (PerkinElmer, Victor™ X5) at 37° C. in a final volume of 200 μL to determine the kinetic properties of the enzyme activity. […]
The determination method for IC50 on FAP is as follows: the substrate Z-Gly-Pro-p-nitroanilide (50 μM, Cat #G-58468, HEOWNS) was used to measure FAP activity at pH 7.4. […] The mixture was then incubated at 37° C. for 6 hours, and the release of pNA was then measured. […]

The target of a further experiment is T1, Human FAP Protein (Homo sapiens, UniProt Q12884).
T1 construct: His; purchased Novoprotein (China)
T1 sequence (Q12884 1-760): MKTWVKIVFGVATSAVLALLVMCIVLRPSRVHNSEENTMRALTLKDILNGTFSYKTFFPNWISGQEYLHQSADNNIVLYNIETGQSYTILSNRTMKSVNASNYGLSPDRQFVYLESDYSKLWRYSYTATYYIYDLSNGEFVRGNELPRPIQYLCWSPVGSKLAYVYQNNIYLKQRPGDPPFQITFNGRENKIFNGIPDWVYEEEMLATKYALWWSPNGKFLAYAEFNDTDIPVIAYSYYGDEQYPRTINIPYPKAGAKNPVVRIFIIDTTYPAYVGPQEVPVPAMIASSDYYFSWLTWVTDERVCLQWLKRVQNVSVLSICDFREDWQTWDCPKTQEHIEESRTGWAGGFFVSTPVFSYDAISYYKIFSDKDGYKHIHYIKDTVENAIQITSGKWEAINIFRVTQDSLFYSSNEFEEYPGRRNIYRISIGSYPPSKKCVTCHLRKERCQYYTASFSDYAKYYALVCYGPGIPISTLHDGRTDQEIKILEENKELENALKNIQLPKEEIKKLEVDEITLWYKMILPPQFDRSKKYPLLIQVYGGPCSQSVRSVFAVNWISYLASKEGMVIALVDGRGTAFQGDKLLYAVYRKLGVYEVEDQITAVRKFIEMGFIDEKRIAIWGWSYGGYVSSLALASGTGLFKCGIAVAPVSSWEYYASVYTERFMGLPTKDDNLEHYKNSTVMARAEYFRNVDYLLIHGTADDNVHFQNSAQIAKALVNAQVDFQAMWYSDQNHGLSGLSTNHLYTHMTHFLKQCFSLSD
The experiment is described as follows: Surface plasmon resonance, multi-cycle mode. The conditions noted are these: SPR multi-cycle. In kind it is binding. The method, then:
According to US Pharmacopeia USP43 IMMUNOLOGICAL TEST METHODS-SURFACE PLASMON RESONANCE<1105> and Chinese Pharmacopoeia 2020, Volume IV, Surface plasmon resonance method, Label-free Immunochemistry (IV), 3429 Immunochemistry, General Rule, a surface plasmon resonance experiment was carried out.
A surface plasma chromatograph from Cytiva was used for measurement. Before protein injection, 400 mM condensing agent 1-ethyl-(3-dimethylaminopropyl)carbodiimide hydrochloride and 100 mM N-hydroxysuccinimide were mixed, and a CM5 sensor chip was activated with this mixture for 420 seconds at a flow rate of 10 μL/min. 50 μg/mL protein was then injected into an Fc2 sample channel at a flow rate of 10 μL/min to achieve a protein immobilization level of about 8000-15000 RU. In the control group, no protein was injected. Subsequently, the unreacted chip was blocked with 1M ethanolamine hydrochloride-NaOH at a flow rate of 10 μL/min for 420 seconds.
Different gradient solutions were injected into channels Fc1-Fc2 at a flow rate of 30 μL/min, followed by a 60-second binding phase and a 90-second dissociation phase, and data were collected.
(In SPR one partner is held on a chip, and binding of the other changes the refractive index at the surface.)

For orientation: pKd means −log10 of the Kd, conventionally taken in molar units. A high value points to a low Kd.

pKd: −log10 of the molar value.

With `N#C[C@@H]1CC(F)(F)CN1C(=O)CNC(=O)c1ccnc2ccc(OCCCN3CCN(C(=O)[C@H](CCCCNC(=O)c4ccc(OS(=O)(=O)F)cc4)NC(=O)CN4CCN(CC(=O)O)CCN(CC(=O)O)CCN(CC(=O)O)CC4)CC3)cc12` [FAPI-CB-01], in the experiment with FAP, DPP-4 and PREP, the “selectivity to FAP protein over homologous proteins DPP-4 and PREP” value was “high selectivity”. Also, at Human FAP Protein, the “affinity compared with FAPI-04” value is recorded as “improved by approximately two orders of magnitude”, the “binding rate compared with FAPI-04” value is “significantly increased” and the “dissociation rate compared with FAPI-04” value is recorded as “decreased”. Further, at Human FAP Protein (1:1 binding model), the pKd was 11.34, the “Rmax (maximum theoretical analyte binding capacity)” value is reported as 29.3 RU and the kd was found to be 4.79e-05 s⁻¹. Further, at Human FAP Protein (1:1 binding model, read-out: ka), the kon was 1.04e+07 M⁻¹ s⁻¹.
